Results published in US20260232554A1, “ORAL CARE AGENT WITH DIMETHYLGLYCINE” (Dr. Kurt Wolff GmbH & Co. KG, priority 2023, published 2026).

Columns and labels:
Type in all cases: cell-based, human
HaCaT cells [1] = experiment: MTT assay, cell viability; settings: after 48 h and 72 h of cultivation, versus control without DMG
Method: (§1) As part of an in vitro study, the effect of sodium dimethylglycinate was investigated in a cell culture model with human keratin-forming keratinocyte cells. For this purpose, HaCaT cells were cultured for 1, 3, 5 and 7 days in DMEM medium (including fetal calf serum and an antibiotic-antimycotic mix) and the viability, proliferation and migration of the cells were determined using suitable measurement methods and the expression of growth factors relevant for cell growth was determined.
For this measurement, a so-called MTT assay was used to determine cellular metabolic activity as an indicator of cell viability and cytotoxicity. This colorimetric assay is based on the reduction of a yellow tetrazolium salt (3-(4,5-dimethylthiazol-2-yl)-2,5-diphenyltetrazolium bromide or MTT) to purple formazan crystals by metabolically active cells.
Human epidermal keratinocyte cells (HaCaT) were seeded in a 96-well plate at a cell density of 5,000 cells/well and cultured in medium (DMEM with 10% FBS, 1% penicillin-streptomycin, 0.5% fungizone). On the next day and after a further 24 h, 48 h and 72 h of cultivation at 37° C. and 5 vol. % CO2, the cell culture medium without (control) or with the respective concentrations of sodium dimethylglycinate (DMG) already contained was changed. […]

HaCaT cells [2] = experiment: CyQUANT assay, cell proliferation; settings: after 48 h and 72 h of cultivation, versus control without DMG
Method: as §1
A so-called CyQUANT assay was used to measure proliferation. In this fluorescence-based assay, the fluorescent dye used binds to DNA (deoxyribonucleic acid), whereby the content of cellular DNA is a direct measure of the number of cells within a sample.
Human epidermal keratinocyte cells (HaCaT) were seeded in a 96-well plate at a cell density of 5,000 cells/well and cultured in medium (DMEM with 10% FBS, 1% penicillin-streptomycin, 0.5% fungizone). On the next day and after a further 24 h, 48 h and 72 h of cultivation at 37° C. and 5 vol. % CO2, the cell culture medium without (control) or with the respective concentrations of active substance already contained was changed. […]

HaCaT cells [3] = experiment: wound healing assay, migration; settings: images after 16 h, 20 h and 24 h, different DMG concentrations, versus control without DMG
Method: as §1
A so-called wound healing assay was used to measure migration, based on previously published studies in T. Kawabata, T. Otsuka, K. Fujita, G. Sakai, R. Matsushima-Nishiwaki, O. Kozawa, H. Tokuda, International journal of molecular medicine 2018, 42, 3149-3156. The principle is based on measuring the migration of cells to a not yet colonized cultivation surface over time. For this purpose, 20,000 cells each were seeded into two adjacent wells or cavities separated by a silicone insert (with standardized width) and cultivated in medium (DMEM with 5% FBS, 1% penicillin-streptomycin, 0.5% fungizone) for 48 h at 37° C. and 5 vol % CO2. The plastic insert was then removed (“creation of the wound”) and the migration of the cells was documented by determining the cultivation surface not colonized with cells over time using images. […]

VEGF = VEGF gene expression by qRT-PCR; settings: HaCaT; after 24 h of cultivation; versus control without DMG
Method: VEGF (vascular endothelial growth factor) promotes the growth and formation of new blood and lymph vessels. Gene expression was measured using a standard method known as quantitative real-time PCR (qRT-PCR).
Human epidermal keratinocyte cells (HaCaT) were seeded in a 6-well plate at a cell density of 140,000 cells/well and cultured in medium (DMEM with 10% FBS, 1% penicillin-streptomycin, 0.5% fungizone) at 37° C. and 5 vol % CO2. On the next day, the cell culture medium without (control) or with the respective concentrations of active substance already contained was changed and the cells were harvested after 24 hours. Gene expression was measured using qRT-PCR based on previously published studies in B. V. Diaz, M.-C. Lenoir, A. Ladoux, C. Frelin, M. Demarchez, S. Michel, Journal of Biological Chemistry 2000, 275, 642-650.

Interleukin-6 (IL-6) = experiment: IL-6 gene expression by qRT-PCR after cytokine-induced inflammation; settings: HaCaT; 25 ng/ml TNFα and 25 ng/ml IFNγ; DMG 0.005%-0.00005%; 24 h; versus positive control of inflammation induction
Method: Interleukin-6 (IL-6) is a peptide hormone of the immune system from the group of pro-inflammatory interleukins and plays a key role in the non-specific, innate immune response. Gene expression was measured using a standard method known as quantitative real-time PCR (qRT-PCR).
Human epidermal keratinocyte cells (HaCaT) were seeded in a 6-well plate at a cell density of 140,000 cells/well and cultured in medium (DMEM with 10% FBS, 1% penicillin-streptomycin, 0.5% fungizone) at 37° C. and 5 vol % CO2. On the next day, cytokine treatment (25 ng/ml tumor necrosis factor-alpha (TNFα) and 25 ng/ml interferon-gamma (IFNγ)) was used to induce cell inflammation. […] with the different DMG drug concentrations (inflammation induction+DMG 0.005%−0.00005%) or without DMG (positive control of inflammation induction). In parallel, cells were treated without any treatment (control) or only with the different DMG drug concentrations (DMG 0.005%−0.00005%) and the cells were harvested after 24 h for gene expression analysis. Gene expression was measured using qRT-PCR based on previously published studies in B. V. Diaz, M.-C. Lenoir, A. Ladoux, C. Frelin, M. Démarchez, S. Michel, Journal of Biological Chemistry 2000, 275, 642-650.

For `CN(C)CC(=O)[O-].[Na+]` [DMG, sodium dimethylglycinate], the “cell viability (MTT, absorption normalized to control at 24 h)” value (HaCaT cells [1]) was “clear increase”, the “cell proliferation (CyQUANT, fluorescence normalized to control at 24 h)” value (HaCaT cells [2]) was “clear increase” and the “migration or wound closure” value (HaCaT cells [3]) was “significantly faster”. The “relative gene expression of VEGF (normalized to GAPDH)” value (VEGF) was “significant increase” and the “expression of interleukin-6 induced by cytokine treatment” value (Interleukin-6 (IL-6)) was “dose-dependently reduced”.
